Measured values as given in US20030104507A1, “Method for detection of ATP” (priority 2001, published 2003).

Test system: Jurkat cells
Assay: Effect of NaF on Jurkat cell luminescence
Assay type: cell-based
Text: In some cells, such as lymphoid cells (e.g., Jurkat), an increase in luminescence over time in the presence of the reagent composition solution is observed. While the underlying mechanism of this increase in luminescence is not known, it is postulated that it results from the functioning of ATP-generating enzymes in this cell. The activity of such enzymes, if left unchecked, will result in an over-estimation of ATP in a sample at the time of the assay. This experiment was designed to test the effects of sodium fluoride on luminescence when using lymphoid cells.
Jurkat cells (ATCC, CRL-1990) were grown in 5% CO2/95% air, 100% humidity at 37° C. and maintained in RPMI media (Sigma, R-8005) containing 10% FBS (Hyclone #SH30070), 1X non-essential amino acids (Hyclone SH30238) and 1 mM sodium pyruvate (Hyclone #SH30239). Cells were plated at 0, 12500, 25000, and 50000 cells/well in 100 μl of media in a 96-well microtiter luminometer plate. Quadruplicate replicates were prepared. To each of these wells was added reagent composition (reagent composition=40 mM Citrate buffer (pH 6.0), 110 mM MES buffer (pH 6.0), 0.2 mM EDTA, 0.2% Gelatin, 100 μg/ml Luciferase (LucPpe2m146, diluted from 37.8 mg/ml stock solution), 100 μM luciferin, 300 mM NaCl, 20 mM MgSO4, 0.05% Mazu DF-204, 0.6% DTAB). In addition, all but the “no KPO4” control sample contained 60 mM KPO4 buffer (pH 6.0). Various concentrations of NaF were then added to the above solution to final concentrations of 0, 1.0, 2.0, 4.0, 10.0 mM; one condition had 10.0 mM NaF but without KPO4.
Total reaction volume per well was 200 μl, consisting of 100 μl cells plus media and 100 μl reagent composition containing KPO4 and/or NaF. The light output was taken at various times on a Dynex microtiter plate luminometer at a 0.5 second read time. The resulting average rlus from quadruplicate wells and calculated signal stabilities as measured by their half-life values are reported in Table S.

SMILES: [F-].[Na+] [NaF, sodium fluoride]
- Average rlu (1.0 mM NaF, 12500 cells/well, 0 min): 358.61 rlu
- Average rlu (1.0 mM NaF, 12500 cells/well, 30 min): 341.31 rlu
- Average rlu (1.0 mM NaF, 12500 cells/well, 85 min): 331.08 rlu
- Average rlu (1.0 mM NaF, 12500 cells/well, 130 min): 323.54 rlu
- Average rlu (1.0 mM NaF, 12500 cells/well, 220 min): 271.89 rlu
- Average rlu (1.0 mM NaF, 12500 cells/well, 255 min): 257.06 rlu
- Average rlu (1.0 mM NaF, 12500 cells/well, 285 min): 247.61 rlu
- Average rlu (1.0 mM NaF, 25000 cells/well, 0 min): 691.68 rlu
- Average rlu (1.0 mM NaF, 25000 cells/well, 30 min): 640.53 rlu
- Average rlu (1.0 mM NaF, 25000 cells/well, 85 min): 611.45 rlu
- Average rlu (1.0 mM NaF, 25000 cells/well, 130 min): 596.87 rlu
- Average rlu (1.0 mM NaF, 25000 cells/well, 220 min): 495.89 rlu
- Average rlu (1.0 mM NaF, 25000 cells/well, 255 min): 463.32 rlu
- Average rlu (1.0 mM NaF, 25000 cells/well, 285 min): 446.32 rlu
- Average rlu (1.0 mM NaF, 50000 cells/well, 0 min): 1380.16 rlu
- Average rlu (1.0 mM NaF, 50000 cells/well, 30 min): 1268.49 rlu
- Average rlu (1.0 mM NaF, 50000 cells/well, 85 min): 1185.73 rlu
- Average rlu (1.0 mM NaF, 50000 cells/well, 130 min): 1147.33 rlu
- Average rlu (1.0 mM NaF, 50000 cells/well, 220 min): 936.82 rlu
- Average rlu (1.0 mM NaF, 50000 cells/well, 255 min): 862.31 rlu
- Average rlu (1.0 mM NaF, 50000 cells/well, 285 min): 832.15 rlu
- Average rlu (2.0 mM NaF, 12500 cells/well, 0 min): 348.16 rlu
- Average rlu (2.0 mM NaF, 12500 cells/well, 30 min): 333.48 rlu
- Average rlu (2.0 mM NaF, 12500 cells/well, 85 min): 323.75 rlu
- Average rlu (2.0 mM NaF, 12500 cells/well, 130 min): 317.48 rlu
- Average rlu (2.0 mM NaF, 12500 cells/well, 220 min): 258.43 rlu
- Average rlu (2.0 mM NaF, 12500 cells/well, 255 min): 251.90 rlu
- Average rlu (2.0 mM NaF, 12500 cells/well, 285 min): 239.40 rlu
- Average rlu (2.0 mM NaF, 25000 cells/well, 0 min): 679.02 rlu
- Average rlu (2.0 mM NaF, 25000 cells/well, 30 min): 631.69 rlu
- Average rlu (2.0 mM NaF, 25000 cells/well, 85 min): 603.07 rlu
- Average rlu (2.0 mM NaF, 25000 cells/well, 130 min): 589.08 rlu
- Average rlu (2.0 mM NaF, 25000 cells/well, 220 min): 472.37 rlu
- Average rlu (2.0 mM NaF, 25000 cells/well, 255 min): 455.25 rlu
- Average rlu (2.0 mM NaF, 25000 cells/well, 285 min): 433.54 rlu
- Average rlu (2.0 mM NaF, 50000 cells/well, 0 min): 1340.22 rlu
- Average rlu (2.0 mM NaF, 50000 cells/well, 30 min): 1239.83 rlu
- Average rlu (2.0 mM NaF, 50000 cells/well, 85 min): 1156.03 rlu
- Average rlu (2.0 mM NaF, 50000 cells/well, 130 min): 1111.04 rlu
- Average rlu (2.0 mM NaF, 50000 cells/well, 220 min): 873.26 rlu
- Average rlu (2.0 mM NaF, 50000 cells/well, 255 min): 829.87 rlu
- Average rlu (2.0 mM NaF, 50000 cells/well, 285 min): 781.80 rlu
- Average rlu (4.0 mM NaF, 12500 cells/well, 0 min): 367.69 rlu
- Average rlu (4.0 mM NaF, 12500 cells/well, 30 min): 346.05 rlu
- Average rlu (4.0 mM NaF, 12500 cells/well, 85 min): 335.27 rlu
- Average rlu (4.0 mM NaF, 12500 cells/well, 130 min): 331.07 rlu
- Average rlu (4.0 mM NaF, 12500 cells/well, 220 min): 275.13 rlu
- Average rlu (4.0 mM NaF, 12500 cells/well, 255 min): 259.58 rlu
- Average rlu (4.0 mM NaF, 12500 cells/well, 285 min): 251.79 rlu
- Average rlu (4.0 mM NaF, 25000 cells/well, 0 min): 691.41 rlu
- Average rlu (4.0 mM NaF, 25000 cells/well, 30 min): 634.08 rlu
- Average rlu (4.0 mM NaF, 25000 cells/well, 85 min): 604.37 rlu
- Average rlu (4.0 mM NaF, 25000 cells/well, 130 min): 587.41 rlu
- Average rlu (4.0 mM NaF, 25000 cells/well, 220 min): 476.36 rlu
- Average rlu (4.0 mM NaF, 25000 cells/well, 255 min): 453.66 rlu
- Average rlu (4.0 mM NaF, 25000 cells/well, 285 min): 436.38 rlu
- Average rlu (4.0 mM NaF, 50000 cells/well, 0 min): 1378.13 rlu
- Average rlu (4.0 mM NaF, 50000 cells/well, 30 min): 1277.41 rlu
- Average rlu (4.0 mM NaF, 50000 cells/well, 85 min): 1195.56 rlu
- Average rlu (4.0 mM NaF, 50000 cells/well, 130 min): 1139.99 rlu
- Average rlu (4.0 mM NaF, 50000 cells/well, 220 min): 883.49 rlu
- Average rlu (4.0 mM NaF, 50000 cells/well, 255 min): 853.43 rlu
- Average rlu (4.0 mM NaF, 50000 cells/well, 285 min): 813.31 rlu
- Average rlu (10.0 mM NaF, 12500 cells/well, 0 min): 364.79 rlu
- Average rlu (10.0 mM NaF, 12500 cells/well, 30 min): 343.44 rlu
- Average rlu (10.0 mM NaF, 12500 cells/well, 85 min): 331.48 rlu
- Average rlu (10.0 mM NaF, 12500 cells/well, 130 min): 326.32 rlu
- Average rlu (10.0 mM NaF, 12500 cells/well, 220 min): 271.64 rlu
- Average rlu (10.0 mM NaF, 12500 cells/well, 255 min): 256.88 rlu
- Average rlu (10.0 mM NaF, 12500 cells/well, 285 min): 248.30 rlu
- Average rlu (10.0 mM NaF, 25000 cells/well, 0 min): 753.29 rlu
- Average rlu (10.0 mM NaF, 25000 cells/well, 30 min): 677.94 rlu
- Average rlu (10.0 mM NaF, 25000 cells/well, 85 min): 635.67 rlu
- Average rlu (10.0 mM NaF, 25000 cells/well, 130 min): 617.77 rlu
- Average rlu (10.0 mM NaF, 25000 cells/well, 220 min): 496.08 rlu
- Average rlu (10.0 mM NaF, 25000 cells/well, 255 min): 471.66 rlu
- Average rlu (10.0 mM NaF, 25000 cells/well, 285 min): 450.76 rlu
- Average rlu (10.0 mM NaF, 50000 cells/well, 0 min): 1442.08 rlu
- Average rlu (10.0 mM NaF, 50000 cells/well, 30 min): 1324.67 rlu
- Average rlu (10.0 mM NaF, 50000 cells/well, 85 min): 1235.80 rlu
- Average rlu (10.0 mM NaF, 50000 cells/well, 130 min): 1181.84 rlu
- Average rlu (10.0 mM NaF, 50000 cells/well, 220 min): 903.44 rlu
- Average rlu (10.0 mM NaF, 50000 cells/well, 255 min): 870.95 rlu
- Average rlu (10.0 mM NaF, 50000 cells/well, 285 min): 826.48 rlu
- Average rlu (10.0 mM NaF, without KPO4, 12500 cells/well, 0 min): 409.57 rlu
- Average rlu (10.0 mM NaF, without KPO4, 12500 cells/well, 30 min): 400.10 rlu
- Average rlu (10.0 mM NaF, without KPO4, 12500 cells/well, 85 min): 384.84 rlu
- Average rlu (10.0 mM NaF, without KPO4, 12500 cells/well, 130 min): 371.42 rlu
- Average rlu (10.0 mM NaF, without KPO4, 12500 cells/well, 220 min): 294.12 rlu
- Average rlu (10.0 mM NaF, without KPO4, 12500 cells/well, 255 min): 283.01 rlu
- Average rlu (10.0 mM NaF, without KPO4, 12500 cells/well, 285 min): 267.78 rlu
- Average rlu (10.0 mM NaF, without KPO4, 25000 cells/well, 0 min): 806.87 rlu
- Average rlu (10.0 mM NaF, without KPO4, 25000 cells/well, 30 min): 785.16 rlu
- Average rlu (10.0 mM NaF, without KPO4, 25000 cells/well, 85 min): 734.44 rlu
- Average rlu (10.0 mM NaF, without KPO4, 25000 cells/well, 130 min): 692.57 rlu
- Average rlu (10.0 mM NaF, without KPO4, 25000 cells/well, 220 min): 516.69 rlu
- Average rlu (10.0 mM NaF, without KPO4, 25000 cells/well, 255 min): 498.99 rlu
- Average rlu (10.0 mM NaF, without KPO4, 25000 cells/well, 285 min): 468.90 rlu
- Average rlu (10.0 mM NaF, without KPO4, 50000 cells/well, 0 min): 1514.80 rlu
- Average rlu (10.0 mM NaF, without KPO4, 50000 cells/well, 30 min): 1449.30 rlu
- effect on the luminescence increase seen with Jurkat cells (NaF added to reagent composition): can inhibit the luminescence increase
